Results published in patent US20100087534A1, “Use of a Photosensitizing Agent in the Treatment or Prevention of an Inflammation-Associated Disorder in the Gastrointestinal Tract of a Mammal” (priority 2005, published 2010).

Columns and labels:
[1] = tested on: CD4+ cells in the colonic mucosa; test: Anti-CD4 immunostaining of treated colonic mucosa; assay type: in vivo, SCID mice; conditions: low dose PDT, 3 days after PDT, compared to DC mice
Protocol: PDT was performed with a photosensitizing agent (δ-ALA) dose of 15 mg/kg, administered 3 hours before the illumination with the energy dose of 10 J/cm^2 per gastrointestinal tract tissue.
Mice were monitored by colonoscopy at day 3 and weeks 1, 2, 3 and 4 post PDT treatment. In addition to parameters investigated in example 1, CD4 immunostaining and apoptosis detection were performed.
For anti-CD4 immunostaining, frozen sections were extensively dried, fixed with 100% acetone at 4° C. and rehydrated in PBS. Sections were then blocked for 20 minutes with a PBS solution containing 0.1% BSA (Sigma-Aldrich Inc., St-Louis, USA) and 0.5% NMS. CD4 detection was performed by incubation of the sections for 1 hour with a cell culture supernatant originating from an hybridoma secreting rat anti-mouse CD4 (clone H129.19). After washing with PBS, an Alexa Fluor 488-conjugated goat anti-rat IgG at a final concentration of 5 ng/ml in PBS 0.1% BSA, 1% NMS was used as secondary antibody and incubated for 45 minutes before two last PBS washings. All incubations were done at room temperature unless specified otherwise.

TNF-α = test: Expression index of TNF-α mRNA in illuminated colon, quantitative real-time PCR; assay type: in vivo, BALB/c mice
Source text: (§1) The third portion was used for measuring the expression of the molecules involved in immune and inflammatory phenomenons in the colonic mucosa (cytokines, chemokines). For RNA extraction this portion was conserved in RNA-later solution (Ambion Inc. Austin, USA) until processing. RNA was extracted from the tissues using a Rneasy Mini kit (Qiagen, Hombrechtikon, Switzerland). RNA samples were submitted to a second or third DNAse treatment in order to get rid of all traces of genomic DNA. Quality of the RNA samples was tested on agarose gels and absence of genomic DNA was tested by PCR using primers specific for a house keeping gene, glyceraldehydes-3-phosphate-dehydrogenase (GAPDH). RNA preparations were then submitted to reverse transcription using the ThermoScript™ RT-PCR system (Invitrogen, Basel, Switzerland) using an Oligo-dT as primer. Quantification of reverse transcripted messenger RNA for GAPDH, the inducible nitric oxide synthetase (iNOS), interferon-gamma (IFN-γ), interleukin-1 receptor antagonist (IL1-Ra), tumor necrosis factor alpha (TNF-α), interleukin 6 (IL-6), tumor growth factor beta (TGF-13) and interleukin10 (IL-10) was performed by quantitative real-time PCR in a BioRad Real-time PCR iCycler using specific pairs of primers and the green fluorescence dye SYBR—Green®. GAPDH was used to normalize quantifications within each individual sample (normalization of the number of mRNA copies for the gene of interest/1 million mRNA copies of the GAPDH gene of the investigated mouse). Expression of each gene of interest was finally calculated as an expression index (normalized number of mRNA copies of each manipulated mice/normalized number of mRNA copies of the unmanipulated mice) and the results are given as mean values of the expression index (unmanipulated mean mice index=1). Furthermore one kidney and a part of the liver were collected for pathological analysis to exclude hepato- or nephrotoxicity.

IFN-γ = test: Expression index of IFN-γ mRNA in illuminated colon, quantitative real-time PCR; assay type: in vivo, BALB/c mice
Source text: as §1

[2] = high dose PDT: 50 J/cm^2, 60 mg δ-ALA, 74 h, unmanipulated mice index=1
[3] = low dose PDT 15 mg/kg δ-ALA, 10 J/cm2
[4] = low dose PDT 5J/cm2, 15 mg/kg δ-ALA

NCC(=O)CCC(=O)O [δ-ALA, 5-aminolevulinic acid]
number of CD4+ cells in the treated colonic mucosa [1]: obvious diminution in the number of CD4^+ cells
expression index TNF-α (TNF-α; [2]): 5.19±0.93
expression index TNF α (TNF-α; [3]): 1.16±0.21
expression index TNF α (TNF-α; [4]): 4.49±2.86
expression index IFN-γ (IFN-γ; [2]): 5.36±1.67
expression index IFN-γ (IFN-γ; [3]): 0.93±0.09
expression index IFN-γ (IFN-γ; [4]): 1.92±0.50
